Measured values taken from patent publication US20190127313A1, “ANTIMICROBIAL AGENTS” (THE UNIVERSITY OF WARWICK, priority 2016, published 2019).
≈ marks a conversion by molar mass, not a printed value.

Experiments:
[1] = tested on: A. baumannii strains; conditions: see Furukawa et al. 2007; cited from earlier work
[2] = tested on: multidrug-resistant A. baumannii strains; assay: MIC against multidrug-resistant A. baumannii strains; format: cell-based; conditions: Acinetobacter baumannii
Protocol: Minimal inhibitory concentrations (MICs) were determined by the CLSI broth microdilution method. Briefly, representative members of the ESKAPE panel of pathogens were grown overnight in Mueller-Hinton (MH) broth at 30° C. Each organism was diluted to a final concentration of 5×10^5 […] using McFarland turbidity standards. Concentrations of vibroxin followed twofold dilutions starting at 32 μg/mL. Assays were incubated for 18h at 30° C.

[3] = Alkaline hydrolysis of the ester linkage, LC-MS analysis; format: physicochemical; conditions: 0.4M KOH, 37° C., 4h
Protocol: The relative stereochemistry of the dihydroxycyclohexane carboxylic acid (DHCCA) moiety in vibroxin was determined by hydrolyzing the ester linkage in vibroxin under basic conditions. […] The same was not true for the corresponding portion of enacyloxin, which had degraded. […] The alkaline hydrolysis reaction was carried out by combining 15 μl of a 5 mg/ml solution of vibroxin/enacyloxin in methanol with 185 μl 0.4M KOH. Following incubation at 37° C. for 4h, the mixture was acidified (<pH 4) with 35% HCl. The samples were analysed by UHPLC-ESI-QTOF-MS analysis using a Dionex UltiMate 3000 RS UHPLC connected to a Zorbax Eclipse Plus column (C18, 100×2.1 mm, 1.8 μm) coupled to a Bruker MaXis IMPACT mass spectrometer. The mass spectrometer was operated in positive ion mode with a scan range of 50-3000 m/z.

[4] = tested on: Acinetobacter baumannii AB5075; assay: MIC/MBC by CLSI broth microdilution, ESKAPE panel; format: cell-based
Protocol: (§1) Minimal inhibitory concentrations (MICs) were determined by the CLSI broth microdilution method. Briefly, representative members of the […] panel of pathogens were grown overnight in Mueller-Hinton (MH) broth at 30° C. Each organism was diluted to a final concentration of 5×10^5 […] using McFarland turbidity standards. Concentrations of vibroxin followed twofold dilutions starting at 32 μg/mL. Assays were incubated for 18h at 30° C. […] Cell suspensions without visible growth were then plated out on LB agar plates to determine the minimal bactericidal concentration (MBC). The MBC was set as the lowest concentration required to kill 99.9% of the originally inoculated 5.10^5 CFU/ml. All MIC and MBC determinations were performed in triplicate.

[5] = tested on: Acinetobacter baumannii ATCC17978; assay: MIC/MBC by CLSI broth microdilution, ESKAPE panel; format: cell-based
Protocol: as §1

[6] = tested on: Acinetobacter baumannii AYE; assay: MIC/MBC by CLSI broth microdilution, ESKAPE panel; format: cell-based
Protocol: as §1

[7] = tested on: Acinetobacter baumannii DSM25645; assay: MIC/MBC by CLSI broth microdilution, ESKAPE panel; format: cell-based
Protocol: as §1

[8] = tested on: Acinetobacter baumannii S1; assay: MIC/MBC by CLSI broth microdilution, ESKAPE panel; format: cell-based
Protocol: as §1

[9] = tested on: Enterobacter cloacae DSM16690; assay: MIC by CLSI broth microdilution, ESKAPE panel; format: cell-based; conditions: MH broth, 18h at 30° C.
Protocol: as §1

[10] = tested on: Enterococcus faecium DSM25390; assay: MIC by CLSI broth microdilution, ESKAPE panel; format: cell-based; conditions: MH broth, 18h at 30° C.
Protocol: as §1

[11] = tested on: Klebsiella pneumoniae DSM26371; assay: MIC by CLSI broth microdilution, ESKAPE panel; format: cell-based; conditions: MH broth, 18h at 30° C.
Protocol: as §1

[12] = tested on: Pseudomonas aeruginosa DSM29239; assay: MIC by CLSI broth microdilution, ESKAPE panel; format: cell-based; conditions: MH broth, 18h at 30° C.
Protocol: as §1

[13] = tested on: Staphylococcus aureus DSM21979; assay: MIC by CLSI broth microdilution, ESKAPE panel; format: cell-based; conditions: MH broth, 18h at 30° C.
Protocol: as §1

[14] = tested on: A2780 human ovarian cancer cells; assay: Cytotoxicity, SRB assay, A2780 cells; format: cell-based; conditions: 24 h exposure, 72 h recovery
Protocol: The cells were obtained from the European Collection of Animal Cell Culture and grown as single monolayers in Roswell Park Memorial Institute medium (RPMI-1640) supplemented with 10% (v/v) fetal calf serum, 1% (v/v) 2 mM L-glutamine and 1% (v/v) penicillin (10 k units/mL)/streptomycin (10 mg/mL). Cells were kept at 310 K in a humidified atmosphere containing 5% CO2 and maintenance passages were done at ca. 80% confluency.
For cytotoxicity measurements, 96-well plates were used to seed 5000 A2780 cells per well. These were left to pre-incubate in drug-free media at 310 K for 48 h before adding various concentrations of vibroxin. A stock solution of vibroxin was prepared in 5% v/v DMSO and 95% v/v cell culture medium. Then, serial dilutions with culture medium were carried out to achieve working concentrations. […] The percentage of viable cells resulting from exposure to vibroxin was determined by measuring the absorbance due to soluble sulforohodamine relative to an untreated control. The absorbance measurements were carried out using a BioRad iMark microplate reader with a 470 nm filter. Mean percentage cell viability values+/−1 standard deviation were calculated from duplicates of triplicates in two independent sets of experiments.

[15] = lowest concentration required to kill 99.9%

Compound	MIC [1] [µg/mL]	MIC [2] [µg/mL]	polyketide chain resulting from alkaline hydrolysis of the ester linkage, detection by LC-MS [3]	MIC ([4]; MH broth, 18h at 30° C.) [µg/mL]	MBC [4, 15] [µg/mL]	MIC ([5]; MH broth, 18h at 30° C.) [µg/mL]	MBC [5, 15] [µg/mL]	MIC ([6]; MH broth, 18h at 30° C.) [µg/mL]	MBC [6, 15] [µg/mL]	MIC ([7]; MH broth, 18h at 30° C.) [µg/mL]	MBC [7, 15] [µg/mL]	MIC ([8]; MH broth, 18h at 30° C.) [µg/mL]	MBC [8, 15] [µg/mL]	MIC [9] [µg/mL]	MIC [10] [µg/mL]	MIC [11] [µg/mL]	MIC [12] [µg/mL]	MIC [13] [µg/mL]	IC50 [14] [µM]	chemical stability (comparison) ([3]; alkaline hydrolysis)
C-18 deschloro-enacyloxin	> 32																			
CC/C=C/[C@@H](OC(N)=O)[C@@H](Cl)[C@H](O)CC(=O)[C@@H](O)[C@H](O)C(C)/C(Cl)=C/C=C/C=C(C)/C=C/C=C/C(=O)O[C@@H]1CC(C(=O)O)CC[C@@H]1O (stereo partly shown) [enacyloxin, enacyloxin IIa, reference compound]		2 (≈ 2.85 µM)	had degraded																	
CC(/C=C/C=C/C(=O)OC1CC(C(=O)O)CCC1O)=C\C=C\C=C(/Cl)C(C)C(O)C(O)C(O)CC(O)/C=C/C=C/C(C)C (stereo not shown) [vibroxin]		2 (≈ 3.21 µM)	could also be detected by LC-MS	2 (≈ 3.21 µM)	4 (≈ 6.42 µM)	2 (≈ 3.21 µM)	8 (≈ 12.8 µM)	2 (≈ 3.21 µM)	4 (≈ 6.42 µM)	2 (≈ 3.21 µM)	8 (≈ 12.8 µM)	1 (≈ 1.6 µM)	8 (≈ 12.8 µM)	> 32	> 32	> 32	> 32	> 32	50 to 100	greater chemical stability than enacyloxin
